Assay results as given in publication PMC9960827, “Cloning and Characterization of Trypanosoma congolense and T. vivax Nucleoside Transporters Reveal the Potential of P1-Type Carriers for the Discovery of Broad-Spectrum Nucleoside-Based Therapeutics against Animal African Trypanosomiasis” (International Journal of Molecular Sciences, 2023).
Like-named read-outs stand apart in the source and are kept apart here.

Tests used:
[1] = molecular target: T. congolense adenosine transporter; assay: [3H]-adenosine uptake and its inhibition in T. congolense IL3000 bloodstream forms; type: cell-based, Trypanosoma congolense; conditions: for Ki: 0.05 µM [3H]-adenosine, 30 s, IC50 converted to Ki, read-out: Ki on the transport of [3H]-adenosine
How it was run: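 Bloodstream-form T. congolense IL3000 (1 × 10^7 cells) in HEPES/bicarbonate buffer pH 7.3 took up [3H]-adenosine over a set interval, with or without inhibitor, ending by ice-cold unlabeled substrate stop or centrifugation through oil. Pellet radioactivity gave IC50 by sigmoid fit; Ki followed by Cheng–Prusoff using adenosine Km.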

TcoAT1 = type: cell-based, Trypanosoma congolense; conditions: for Ki: 0.05 µM [3H]-adenosine, 10 s, IC50 converted to Ki, read-out: Ki on the transport of [3H]-adenosine; for ΔG0: Gibbs free energy of binding, from Km or Ki; for δ(ΔG0): loss of Gibbs free energy of binding relative to the parent nucleoside
How it was run: (§1)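 Transporter genes were expressed in an L. mexicana line lacking NT1 and NT2 (SUPKO), and 1 × 10^7 cells in HEPES/bicarbonate buffer pH 7.3 took up radiolabeled permeant through an oil layer, with or without inhibitor. Uptake was stopped with ice-cold unlabeled substrate or by centrifugation, and pellets were counted. IC50 against radiolabeled adenosine was converted to Ki by Cheng–Prusoff using the permeant Km.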

TvxNT3 = TvxNT3 (Trypanosoma vivax, UniProt F9WV62); assay: cell-based; type: cell-based; conditions: for δ(ΔG0): difference in ΔG0 relative to the parent purine (adenosine or inosine)
How it was run: as §1

L. mexicana Cas9 = assay: Resazurin drug sensitivity assay, LmexCas9; type: cell-based, Leishmania mexicana; conditions: read-out: LmexCas9 EC50
How it was run: (§2)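 Sigmoid curve (variable slope) fitted to obtain EC50. At least 3 independent determinations on different days, averaged.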

L. mexicana SUPKO+TcoAT1 = assay: microbe, parasite or virus in culture; type: cell-based, Leishmania mexicana; conditions: for EC50: read-out: SUPKO+TcoAT1 EC50
How it was run: as §2

L. mexicana SUPKO+TvxNT3 = assay: microbe, parasite or virus in culture; type: cell-based, Leishmania mexicana; conditions: read-out: SUPKO+TvxNT3 EC50
How it was run: as §2

L. mexicana SUPKO = assay: microbe, parasite or virus in culture; type: cell-based, Leishmania mexicana
How it was run: as §2

T. congolense IL3000 [2] = assay: Alamar Blue (resazurin) assay, T. congolense IL3000; type: cell-based, Trypanosoma congolense
How it was run: as §2

T. congolense 6C3 [3] = assay: microbe, parasite or virus in culture; type: cell-based, Trypanosoma congolense
How it was run: as §2

T. vivax [4] = assay: T. vivax EC50 (from Mabille et al.); type: cell-based, Trypanosoma vivax; conditions: from Table 8 data
T.b.b. B48 [5] = assay: Alamar Blue (resazurin) assay, T. b. brucei B48; type: cell-based, Trypanosoma brucei brucei
How it was run: as §2

[6] = system: human embryonic kidney (HEK) cells; assay: Resazurin toxicity assay on human embryonic kidney cells; type: cell-based
How it was run: as §2

T. congolense IL3000 [7] = system: T. congolense IL3000; design: method as in Hulpia et al. [38]; conditions: values marked *; ref Hulpia et al. [38]; cited from earlier work
T. congolense 6C3 [8] = system: T. congolense 6C3; design: method as in Hulpia et al. [38]; conditions: values marked *; ref Hulpia et al. [38]; cited from earlier work
T. vivax [9] = system: T. vivax; design: method as in Mabille et al. [69]; conditions: added for comparison only; ref Mabille et al. [69]; cited from earlier work
T.b.b. B48 [10] = system: T.b.b. B48; design: method as in Hulpia et al. [38]; conditions: compound marked *; ref Hulpia et al. [38]; cited from earlier work
T. evansi = system: T. evansi; design: method as in Hulpia et al. [38]; conditions: compound marked *; ref Hulpia et al. [38]; cited from earlier work
T. equiperdum = system: T. equiperdum; design: method as in Hulpia et al. [38]; conditions: compound marked *; ref Hulpia et al. [38]; cited from earlier work
T. b. brucei = conditions: also CNS stage; oral and intraperitoneal administration; cited from earlier work
[11] = system: T. congolense IL3000-based cell line expressing TbAT1; assay: Resazurin drug sensitivity assay, T. congolense IL3000 expressing TbAT1; design: species or system Trypanosoma congolense; conditions: three independent clones, p < 0.0001
Description: EC50 values were determined by plotting to an equation for a sigmoid curve with variable slope (GraphPad Prism 8). All values were the average of at least three independent determinations on different days.

[12] = molecular target: T. b. brucei P1 (TbP1/NT2); conditions: cited from earlier work
T. brucei wild type = conditions: cited from earlier work
T. brucei TbAT1-KO = conditions: cited from earlier work
T. brucei cells = system: T. brucei cells; design: method as in PMID 30475806; conditions: T. brucei cells treated with the drug; cited from earlier work

Chain of TvxNT3 (F9WV62 entry or part of it): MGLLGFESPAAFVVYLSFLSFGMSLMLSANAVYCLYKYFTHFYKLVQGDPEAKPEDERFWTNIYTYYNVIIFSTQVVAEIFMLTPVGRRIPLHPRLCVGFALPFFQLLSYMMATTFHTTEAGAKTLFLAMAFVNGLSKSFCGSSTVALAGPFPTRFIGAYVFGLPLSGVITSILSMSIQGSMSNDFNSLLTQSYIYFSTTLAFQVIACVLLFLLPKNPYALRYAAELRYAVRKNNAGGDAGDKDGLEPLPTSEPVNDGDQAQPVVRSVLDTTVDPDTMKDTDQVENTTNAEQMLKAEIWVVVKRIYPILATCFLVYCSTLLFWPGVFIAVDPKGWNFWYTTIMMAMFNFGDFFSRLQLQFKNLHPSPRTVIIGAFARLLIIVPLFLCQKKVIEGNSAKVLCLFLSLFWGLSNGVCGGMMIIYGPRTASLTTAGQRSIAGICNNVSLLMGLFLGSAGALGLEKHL

## Nc1ncnc2c1ccn2C1OC(CO)CC1O (stereo not shown) [FH7429_d, 3′-deoxytubercidin]
[1]
  Ki: 319 ± 93 µM
[1]; calculated from Km or Ki
  ΔG0, Gibbs free energy of interaction: -4.76 kcal/mol
TcoAT1
  Ki: 810 ± 60 µM
  ΔG0: -4.3 kcal/mol
TvxNT3; 50 nM [3H]-adenosine, 90 s, IC50 converted to Ki, read-out: Ki on the transport of [3H]-adenosine
  Ki: 388 ± 13 µM
TvxNT3; Gibbs free energy of interaction, from Km or Ki
  ΔG0: -4.66 kcal/mol
L. mexicana Cas9; resazurin, promastigotes
  EC50: 15.1 ± 1.7 µM
L. mexicana SUPKO+TcoAT1; Resistance Factor relative to SUPKO
  SUPKO+TcoAT1 RF (SUPKO): >1.53
L. mexicana SUPKO+TcoAT1; resazurin, promastigotes
  EC50: 65.3 ± 7.6 µM
L. mexicana SUPKO+TvxNT3; resazurin, promastigotes
  EC50: > 100 µM
L. mexicana SUPKO; Resistance Factor = EC50(SUPKO)/EC50(Cas9)
  SUPKO RF (Cas9): >6.63
L. mexicana SUPKO; resazurin, promastigotes, read-out: SUPKO EC50
  EC50: > 100 µM
T. congolense IL3000 [2]; against T. congolense
  fold more potent than tubercidin: 150 fold
T. congolense 6C3 [3]; resistance factor = EC50 (test strain)/EC50(control strain)
  T. congolense 6C3 RF: 0.91
T. vivax [4]
  fold higher EC50 against T. vivax compared to T. congolense: 10–165 fold
T.b.b. B48 [5]; against T. b. brucei B48
  fold more potent than tubercidin: 17.2 fold
[6]; resazurin, 96 well plates, read-out: HEK EC50
  EC50: > 200 µM
[6]; selectivity index = EC50 (HEK cells)/EC50 (T. equiperdum)
  SI T. equiperdum: >76,000
[6]; selectivity index = EC50 (HEK cells)/EC50 (T. evansi)
  SI T. evansi: >11,800
T. congolense IL3000 [7]
  EC50: 0.021 ± 0.001 µM
T. congolense 6C3 [8]
  EC50: 0.019 ± 0.002 µM
T. vivax [9]
  EC50: 3.48 ± 0.09 µM
T.b.b. B48 [10]
  EC50: 0.25 ± 0.02 µM
T. evansi
  EC50: 0.017 ± 0.002 µM
T. equiperdum
  EC50: 0.0026 ± 0.0006 µM
T. b. brucei
  outcome in T. b. brucei mouse model: curative

## Nc1ncnc2c1ccn2[C@@H]1O[C@H](CO)[C@@H](O)[C@H]1O [Tubercidin, 7-deazaadenosine]
[1]
  Ki: 403 ± 120 µM
TcoAT1
  Ki: 754 ± 54.3 µM
  ΔG0: -4.25 kcal/mol
  δ(ΔG0): 4.441 kcal/mol
TcoAT1; listed as tubercidin
  δ(ΔG0): 4.45 kcal/mol
TvxNT3
  δ(ΔG0): -3.148 kcal/mol
TvxNT3; listed as tubercidin
  δ(ΔG0): 3.15 kcal/mol
L. mexicana Cas9; Leishmania mexicana
  EC50: 0.44 ± 0.06 µM
L. mexicana SUPKO+TcoAT1; Leishmania mexicana
  EC50: > 100 µM
L. mexicana SUPKO+TvxNT3; Leishmania mexicana
  EC50: > 100 µM
L. mexicana SUPKO; Leishmania mexicana, read-out: SUPKO EC50, resazurin, promastigotes
  EC50: > 100 µM
T. congolense IL3000 [2]; Trypanosoma congolense, read-out: T. congolense IL3000 EC50
  EC50: 3.16 ± 0.5 µM
T. congolense 6C3 [3]; Trypanosoma congolense, diminazene resistant strain, resazurin, read-out: T. congolense 6C3 EC50
  EC50: 1.83 ± 0.39 µM
T.b.b. B48 [5]; Trypanosoma brucei, read-out: T.b.b. B48 EC50
  EC50: 4.3 ± 1.3 µM
[11]
  effect of TbAT1 expression on sensitivity: highly significant sensitization
[12]; T. b. brucei bloodstream forms, read-out: Tbb P1 Ki
  Ki: 78 ± 6.4 µM
[12]
  Tbb P1 ΔG0: -5.59 kcal/mol
T. brucei wild type
  EC50: 0.15 ± 0.03 µM
T. brucei TbAT1-KO
  EC50: 4.3 ± 1.3 µM

## Nc1nc(N)nc(Nc2ccc([As]3SCC(CO)S3)cc2)n1 (stereo not shown) [melarsoprol]
T. brucei cells
  cells bearing conjoined nuclei and double kinetoplasts: > 10%
